Measured values from patent US20170274005A1, “TREATMENT OF RETINITIS PIGMENTOSA USING HYALURONIC ACID-CARBON NANOMATERIAL-PHOTOSENSITIZER COMPLEX” (POSTECH ACADEMY-INDUSTRY FOUNDATION, priority 2016, published 2017).

Experiments:
[1] = Analysis of prevention of active oxygen using DPPH; conditions: aqueous solution, 0 to 100 μg/mL based on the amount of Ce6, FIG. 2
[2] = test system: retinal pigment epithelium cell; assay: MTT assay of retinal pigment epithelium cell treated using sodium iodate; assay type: cell-based; conditions: pre-treatment, then 5 mM sodium iodate, 24 hours, FIG. 5

For chlorine e6 [Ce6], the “active oxygen suppression ability” value [1] was 60% and the “viability of the pre-treated cell versus cell treated using sodium iodate only” value [2] was “lower”.
